The conditions of the series: 298 K; 101.33 kPa; Crystal; SIGMATEST 2.069 (Foerster) testing instrument - complex impedance measurements.

Numbers after ± are expanded uncertainties.

Take `[Ag]` [silver]: the electrical conductivity was determined as 6.107e+07 ± 610000 S/m.

The values above are taken from the NIST ThermoML archive (doi:10.1016/j.tca.2019.01.016).
